Measured values as given in patent US20040121009A1, “Method of modifying the release profile of sustained release compositions” (Alkermes Controlled Therapeutics, Inc., priority 2002, published 2004).

Columns and labels:
[1] = for amount of peripheral fibrosis surrounding the microsphere depot in the subcutis / intensity of the granulomatous inflammatory reaction within the microsphere mass: co-administration with EPO-containing microparticles; for color of the skin overlying microsphere depots: rat, in vivo
Description: Animals were anesthetized with 5% halothane. Each animal was shaved and the back swabbed with alcohol. […] The microparticles were prepared as described above. The microparticles were injected into an interscapular site using a 21 gauge thinwall needle attached to a 1 mL syringe. Animals were dosed to receive a total of 10,000 U EPO either alone (Group A) or in combination with a total of 5 mg of hydrocortisone acetate (Group B), or 1 mg (Group C) or 5 mg (Group D) of triamcinolone diacetate. Animals were followed for 35 days post implantation.

[2] = system: anti-EPO antibody; assay: Example 3: immunogenicity, anti-EPO antibody ELISA of sera; assay type: in vivo, rat
[3] = Example 3: hematocrit testing; assay type: in vivo, rat; details: day 19 (maximum for corticosteroid groups); Groups A, B, C of Table 3
Description: (§1) Animals were dosed to receive a total of 10,000 Units of EPO in combination with a total of 100 mg of placebo microparticles (Group A), 5 mg of triamcinolone acetonide and 100 mg of placebo microparticles admixed (Group B) and 100 mg of 20% w/w hydrocortisone-containing microparticles (Group C). Sample collection time points were pre-bleed, 1, 2, 6, 12, 19, and 26 days.
To evaluate EPO serum levels, 0.4 mL samples were collected via tail vein on the days specified in Table 3 (four animals per group). After clotting, the samples were centrifuged and frozen (−70° C.). Serum EPO levels were quantitated by ELISA (R&D Systems), according to the manufacturer's instructions (Cat. No. DEP00, and the data were normalized for dose and body weight. Starting on day 12, serum samples were also assessed for EPO antibody levels weekly, using an ELISA This assay detects all antibody subclasses inasmuch as the detecting antibody is reactive with both immunoglobulin heavy (γ) and light chains. Hematocrit analyses were carried out as described in Example 1, and were tested at the following intervals relative to time of microsparticle administration: pre-bleed, 1, 2, 6, 12, 19, and 26 days.

[4] = Example 3: serum EPO levels by ELISA; assay type: in vivo, rat; details: 10,000 U EPO microparticles plus 100 mg placebo microparticles (A), 5 mg triamcinolone acetonide admixed with 100 mg placebo microparticles (B) or 100 mg 20% hydrocortisone microparticles (C)
Description: as §1
To evaluate EPO serum levels, 0.4 mL samples were collected via tail vein on the days specified in Table 3 (four animals per group). After clotting, the samples were centrifuged and frozen (−70° C.).

[5] = Example 1: hematocrit testing; assay type: in vivo, rat; details: day 36; EPO microparticles plus 1 mg secondary agent (Group C)
Description: Animals were anesthetized with 5% halothane. […] The microparticles were prepared as described above. […] Hematocrits were evaluated manually following centrifugation for 5 minutes at 8000 rpm (on four animals per group) using a capillary tube.

SMILES	amount of peripheral fibrosis surrounding the microsphere depot in the subcutis [1]	intensity of the granulomatous inflammatory reaction within the microsphere mass [1]	color of the skin overlying microsphere depots [1]	incidence of animals with anti-EPO antibodies ([2]; day 19, n=4/group)	anti-EPO antibody titer ([2]; day 19, the one positive animal of Group B)	EPO antibody titer as percentage of the titer in the control group ([2]; day 33)	incidence of animals with anti-EPO antibodies ([2]; day 33)	hematocrit values [3]	average serum EPO levels (steady state) between day 6 and day 19 [4]	hematocrit values [5]
CC(=O)OCC(=O)[C@@]1(O)CC[C@H]2[C@@H]3CCC4=CC(=O)CC[C@]4(C)[C@H]3[C@@H](O)C[C@@]21C [hydrocortisone acetate]	diminished	reduced	pallid in most rats							
CC1(C)O[C@@H]2C[C@H]3[C@@H]4CCC5=CC(=O)C=C[C@]5(C)[C@@]4(F)[C@@H](O)C[C@]3(C)[C@]2(C(=O)CO)O1 [triamcinolone acetonide]				only one animal	1800	about 50%	75%	69.3%±3.3	148.6±102.9 mU/mL	
CC(=O)OCC(=O)[C@@]1(O)[C@H](OC(C)=O)C[C@H]2[C@@H]3CCC4=CC(=O)C=C[C@]4(C)[C@@]3(F)[C@@H](O)C[C@@]21C [triamcinolone diacetate]	diminished	reduced	pallid in most rats							mid-60%
